# Measurements from article PMC12656329, “Specific Hepatorenal Toxicity and Cross-Species Susceptibility of Eight Representative Pesticides” (Toxics, 2025).
# Entries after “also recorded” stand apart in the source; their conditions may differ. Where two headings read alike, the source gives them in different places.
# Columns and labels:
# Rat = details: cited from earlier work
# CCC-HEL-1 hepatocytes [1] = test: CCK-8 cytotoxicity assay, CCC-HEL-1; assay type: cell-based; details: Homo sapiens, Hepatocyte; CCK-8, 24 h exposure
# Protocol: (§1) Human embryonic kidney 293T (HEK293T) cells and rat renal NRK cells were maintained in high-glucose DMEM supplemented with 10% fetal bovine serum (FBS) and 1% penicillin–streptomycin at 37 °C under 5% CO2 until reaching 70–80%. Human liver CCC-HEL-1 cells were cultured under identical conditions but with 20% FBS, while rat normal hepatocytes were grown in high-glucose MEM containing 20% FBS and 1% penicillin–streptomycin. Stock solutions (500 g/L) of eight pesticide standards were prepared in dimethyl sulfoxide (DMSO) and stored at −20 °C. Working concentrations were freshly diluted in serum-containing culture medium prior to each experiment.
# (§2) The cytotoxicity of eight pesticides on four mammalian cell lines was assessed using the Cell Counting Kit-8 (CCK-8) assay. Initially, stock solutions of each pesticide were prepared by dissolving the compound in dimethyl sulfoxide (DMSO) to a final concentration of 500 g/L. For the assay, cells were seeded into 96-well plates at a density of 2 × 10^4 cells per well in 100 µL of medium and incubated for 24 h at 37 °C under a 5% CO2 atmosphere to allow for attachment. Subsequently, the culture medium was replaced with fresh medium containing the pesticides at a series of final concentrations (0, 10, 100, 200, 400, 800, 1000, and 2500 mg/L). Pesticide working concentrations were prepared through serial dilution of the 500 g/L DMSO stock solution, resulting in variable final DMSO concentrations across treatment groups (ranging from 0.002% to 0.5% v/v). A media-only blank (no cells) was included for background absorbance correction, and a solvent control (0.1% DMSO, no pesticide) was used to account for any vehicle effects. All conditions were performed in five replicates. […] At DMSO concentrations ranging from 0.1% to 0.2%, the viability of all four cell lines remained stable above 80%. At a 1% DMSO concentration, the viability of all four cell types was around 50% or higher (Supplementary Figure S5). Following 24 h of exposure, 10 µL of CCK-8 reagent was added to each well. Absorbance Measurement: After an additional 1 h of incubation in the dark, the optical density (OD) at 450 nm was recorded using a microplate reader. Cell viability was calculated by comparing the OD values of treated groups with those of the blank control. Although some test concentrations exceeded the water solubility of the pesticides, the combination of DMSO and serum in the culture medium maintained a uniform exposure system. No precipitation was observed during the experiment, ensuring that the measured effects are attributed to the bioavailable fraction of the compound. […]
# (§3) 1. Pesticide Exposure: After removing the medium, fresh medium containing gradient concentrations (0–2500 mg/L) of each pesticide was added (five replicates per concentration).
# (§4) Following 24 h of exposure, 10 µL of CCK-8 reagent was added to each well.
# (§5) 2. Absorbance Measurement: After 1 h of dark incubation, the OD at 450 nm was measured using a microplate reader.
# (§6) 3. Cell Viability Calculation: Viability was determined by comparing the OD values of treated groups to the blank control. […]
# NRK renal cells = test: CCK-8 cytotoxicity assay, NRK; assay type: cell-based; details: Rattus norvegicus; CCK-8, 24 h exposure
# Protocol: as §1, §2, §3, §4, §5, §6
# CCC-HEL-1 hepatocytes [2] = details: CCC-HEL-1 cells, 24 h exposure at median lethal concentration, vs control
# [3] = test system: four mammalian cell lines (CCC-HEL-1, 293T, IAR, NRK); test: CCK-8 cytotoxicity, statements across the four cell lines; assay type: cell-based, human and rat; details: CCK-8 / heatmap of OD values
# Protocol: The cytotoxicity of eight pesticides on four mammalian cell lines was assessed using the Cell Counting Kit-8 (CCK-8) assay. Initially, stock solutions of each pesticide were prepared by dissolving the compound in dimethyl sulfoxide (DMSO) to a final concentration of 500 g/L. For the assay, cells were seeded into 96-well plates at a density of 2 × 10^4 cells per well in 100 µL of medium and incubated for 24 h at 37 °C under a 5% CO2 atmosphere to allow for attachment. Subsequently, the culture medium was replaced with fresh medium containing the pesticides at a series of final concentrations (0, 10, 100, 200, 400, 800, 1000, and 2500 mg/L). Pesticide working concentrations were prepared through serial dilution of the 500 g/L DMSO stock solution, resulting in variable final DMSO concentrations across treatment groups (ranging from 0.002% to 0.5% v/v). A media-only blank (no cells) was included for background absorbance correction, and a solvent control (0.1% DMSO, no pesticide) was used to account for any vehicle effects. All conditions were performed in five replicates. […] At DMSO concentrations ranging from 0.1% to 0.2%, the viability of all four cell lines remained stable above 80%. At a 1% DMSO concentration, the viability of all four cell types was around 50% or higher (Supplementary Figure S5). Following 24 h of exposure, 10 µL of CCK-8 reagent was added to each well. Absorbance Measurement: After an additional 1 h of incubation in the dark, the optical density (OD) at 450 nm was recorded using a microplate reader. Cell viability was calculated by comparing the OD values of treated groups with those of the blank control. Although some test concentrations exceeded the water solubility of the pesticides, the combination of DMSO and serum in the culture medium maintained a uniform exposure system. No precipitation was observed during the experiment, ensuring that the measured effects are attributed to the bioavailable fraction of the compound.
# [4] = ref PPDB: Pesticide Properties DataBase, cited from earlier work
# IAR hepatocytes = test: CCK-8 cytotoxicity assay, IAR; assay type: cell-based; details: Rattus norvegicus, Hepatocyte; CCK-8, 24 h exposure
# Protocol: as §1, §2, §3, §4, §5, §6
# 293T renal cells [5] = test: CCK-8 cytotoxicity assay, 293T; assay type: cell-based, human; details: CCK-8, 24 h exposure; for IC50: Homo sapiens, HEK-293T, 24 h
# Protocol: as §1, §2, §3, §4, §5, §6
# MRP2 in 293T renal cells = test: MRP2 immunofluorescence staining, 293T; assay type: cell-based, human; details: 293T cells, 24 h at IC50, immunofluorescence, vs untreated controls
# Protocol: Cells were seeded at a density of 1 × 10^5 cells per well in immunofluorescence-specific glass-bottom dishes and allowed to adhere for 24 h. […] Following treatment, cells were fixed with 4% paraformaldehyde for 15 min at room temperature and permeabilized with 0.1% Triton X-100 for 10 min. Non-specific binding was blocked with 5% bovine serum albumin (BSA) for 1 h at room temperature. Cells were then incubated with primary antibody against MRP2 (1:300 dilution) overnight at 4 °C. After three washes with PBS, cells were treated with secondary antibody (rabbit anti-IgG, 1:600 dilution) for 1 h at room temperature and washed three times with PBS. Anti-MRP2 antibody (Abcam, ab172630) and Alexa Fluor® 488-conjugated anti-rabbit IgG secondary antibody (Cell Signaling Technology, Danvers, MA, USA, 4412) were used for immunofluorescence staining. Nuclei were counterstained with DAPI Staining Solution (C1005, 10 mL) (Beyotime Biotechnology, Shanghai, China). Fluorescent images were captured using a 10× inverted fluorescence microscope. Quantitative analysis of fluorescence intensity was performed using ImageJ software 2.1.0 (National Institutes of Health, Bethesda, MD, USA).
# 293T renal cells [6] = test: ELISA of toxicity biomarkers (LDH, KIM-1) in culture supernatant, 293T; assay type: cell-based, human; details: 293T cells, 24 h exposure at median lethal concentration, vs control
# Protocol: The levels of hepatotoxicity biomarkers (ALT, AST, ALP) and nephrotoxicity biomarkers (KIM-1, LDH) in cell culture supernatant were quantified using commercially available ELISA kits (Cloud-Clone Corp., Wuhan, China). 100 μL of the supernatant was added to the pre-coated wells and incubated according to the manufacturer’s protocol (five replicates). After washing, the appropriate detection antibody and substrate were added, and the absorbance was measured at 450 nm using microplate reader. The concentrations of the biomarkers were determined based on standard curves.
# [7] = cited from earlier work
# Colinus virginianus = details: in vivo; cited from earlier work
# [8] = Rat, ref PPDB: Pesticide Properties DataBase
# [9] = cell lines as stated in the sentence
SMILES,Mammals - Acute oral LD50 (Rat; [8]) [mg/kg],IC50 (CCC-HEL-1 hepatocytes [1]) [µg/mL],IC50 (NRK renal cells) [µg/mL],AST level (CCC-HEL-1 hepatocytes [2]),"cytotoxicity (in words) [3, 9]",ADI - Acceptable Daily Intake ([4]; Rat SF=100) [mg kg⁻¹ bw day⁻¹],IC50 (IAR hepatocytes) [µg/mL],IC50 (293T renal cells [5]) [µg/mL],LDH level (CCC-HEL-1 hepatocytes [2]),other results
"N#Cc1c(Cl)c(Cl)c(Cl)c(C#N)c1Cl [Chlorothalonil, chlorothalonil]",> 5000,48.1,55.6,marked suppression,relatively lower cytotoxicity at specific concentrations,0.015,21.3,32.5,–,"cytotoxicity (in words) ([3]; cell lines as stated in the sentence, listed as chlorothalonil): strongest cytotoxicity; also recorded: most cytotoxic agent; 293T IC50 (293T renal cells [5]): 32.6 µg/mL"
"CCOP(=S)(OCC)Oc1nc(Cl)c(Cl)cc1Cl [Chlorpyrifos, chlorpyrifos]",66,633,990,marked suppression,–,0.001,898,444,most dramatic LDH elevation,MRP2 protein level (MRP2 in 293T renal cells): most pronounced effect; also recorded: most pronounced downregulation; KIM-1 expression (293T renal cells [6]): significantly decreased; also recorded: statistically significant downregulation; cytotoxicity (in words) [3]: lowest toxicity; also recorded: minimal direct cytotoxicity
"CC1COC(Cn2cncn2)(c2ccc(Oc3ccc(Cl)cc3)cc2Cl)O1 (stereo not shown) [Difenoconazole, difenoconazole]",–,374,498,increased levels,strong cytotoxic effects,0.01,132,209,–,KIM-1 expression (293T renal cells [6]): significantly decreased; ALT level (CCC-HEL-1 hepatocytes [2]): reduced ALT activity; AST level (CCC-HEL-1 hepatocytes [2]; listed as difenoconazole): elevated AST levels
"CCCCC(C#N)(Cn1cncn1)c1ccc(Cl)cc1 (stereo not shown) [Myclobutanil, myclobutanil]",–,455,588,–,strong cytotoxic effects,0.025,567,458,LDH elevation,"Mammals - Acute oral LD50 (Rat; rat, in vivo, po): 1600 mg/kg; MRP2 protein level (MRP2 in 293T renal cells): most pronounced effect; LDH release (293T renal cells [6]): significantly elevated LDH release; Toxicokinetic Parameter (Concentration), mean ([7]; parent compound, ref [1] (Ding et al. 2023, ref 74)): 38.3 ng/g creatinine; Birds - Acute LD50 (Colinus virginianus): 510 mg/kg"
"Cc1cc(C)nc(Nc2ccccc2)n1 [Pyrimethanil, pyrimethanil]",4150,505,192,–,–,0.17,362,111,LDH elevation,LDH release (293T renal cells [6]): significantly elevated LDH release; LDH release (293T renal cells [6]; listed as pyrimethanil): significantly increased; ALP level (CCC-HEL-1 hepatocytes [2]): isolated ALP elevation; ALT level (CCC-HEL-1 hepatocytes [2]): normal ALT levels; ALP level (CCC-HEL-1 hepatocytes [2]; listed as pyrimethanil): substantial increases
"Oc1nc(Cl)c(Cl)cc1Cl [TCPy, 3,5,6-Trichloro-2-pyridinol]",–,–,–,–,–,–,–,–,–,"Toxicokinetic Parameter (Concentration), highest level ([7]; metabolite of chlorpyrifos, ref [3] (Huen et al. 2012, ref 76)): 6.27 ng/mL"
"CC(C)(C)C(O)(CCc1ccc(Cl)cc1)Cn1cncn1 (stereo not shown) [Tebuconazole, tebuconazole]",–,135,171,–,relatively lower cytotoxicity at specific concentrations,–,188,41.5,LDH elevation,"Mammals - Acute oral LD50 (Rat; rat, in vivo, po): 1700; ALP level (CCC-HEL-1 hepatocytes [2]): concurrent elevations of both ALT and ALP; ALP level (CCC-HEL-1 hepatocytes [2]; listed as tebuconazole): substantial increases; ADI - Acceptable Daily Intake ([4]; Dog SF=100): 0.03 mg kg⁻¹ bw day⁻¹; Birds - Acute LD50 (Colinus virginianus): 1988"
"CC(C)(C)C(=O)C(Oc1ccc(Cl)cc1)n1cncn1 (stereo not shown) [Triadimefon, triadimefon]",–,219,977,–,strong cytotoxic effects,–,878,107,–,ADI - Acceptable Daily Intake ([4]; basis species not given): 0.03 mg kg⁻¹ bw day⁻¹
